Assay results from ChEMBL document CHEMBL4806968, “Hipk inhibitors and methods of use thereof” (2020).
Active and inactive are the calls of the source. The calls are words filed in the database; no cut-off is given here.

Key:
GILM3 = experiment: Inhibition of cell migration in human GILM3 cells at 1 to 10 uM; format: functional, cell-based; conditions: dose 1-10 µM
[1] = target: T1, Homeodomain-interacting protein kinase 4 (Homo sapiens) (UniProt Q8NE63); experiment: Inhibition of HIPK4 (unknown origin) at 0.5 uM relative to control
T1 sequence (whole entry): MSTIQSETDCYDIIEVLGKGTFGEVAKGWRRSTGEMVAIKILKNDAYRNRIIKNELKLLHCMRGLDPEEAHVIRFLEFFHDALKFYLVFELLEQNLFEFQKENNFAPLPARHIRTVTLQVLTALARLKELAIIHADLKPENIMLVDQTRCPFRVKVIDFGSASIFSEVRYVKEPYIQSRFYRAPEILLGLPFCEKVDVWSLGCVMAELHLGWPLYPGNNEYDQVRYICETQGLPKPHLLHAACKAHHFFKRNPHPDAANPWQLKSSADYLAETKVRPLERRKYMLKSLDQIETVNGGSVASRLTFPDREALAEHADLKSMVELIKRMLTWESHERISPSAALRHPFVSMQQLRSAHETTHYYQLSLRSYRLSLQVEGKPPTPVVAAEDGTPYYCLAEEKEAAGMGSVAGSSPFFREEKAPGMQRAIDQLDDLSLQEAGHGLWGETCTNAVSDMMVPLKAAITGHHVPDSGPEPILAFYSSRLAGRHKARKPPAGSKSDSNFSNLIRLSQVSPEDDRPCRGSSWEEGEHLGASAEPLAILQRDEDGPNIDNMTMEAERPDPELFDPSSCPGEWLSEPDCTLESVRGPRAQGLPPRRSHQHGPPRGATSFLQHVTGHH

[2] = target: Serine/threonine-protein kinase 10 (Homo sapiens) (UniProt O94804); experiment: Inhibition of LOK (unknown origin) at 0.5 uM relative to control
[3] = target: Tyrosine-protein kinase receptor UFO (Homo sapiens) (UniProt P30530); experiment: Inhibition of AXL (unknown origin) at 0.5 uM relative to control
Tyrosine-protein kinase receptor UFO (Homo sapiens), sequence (P30530 whole entry): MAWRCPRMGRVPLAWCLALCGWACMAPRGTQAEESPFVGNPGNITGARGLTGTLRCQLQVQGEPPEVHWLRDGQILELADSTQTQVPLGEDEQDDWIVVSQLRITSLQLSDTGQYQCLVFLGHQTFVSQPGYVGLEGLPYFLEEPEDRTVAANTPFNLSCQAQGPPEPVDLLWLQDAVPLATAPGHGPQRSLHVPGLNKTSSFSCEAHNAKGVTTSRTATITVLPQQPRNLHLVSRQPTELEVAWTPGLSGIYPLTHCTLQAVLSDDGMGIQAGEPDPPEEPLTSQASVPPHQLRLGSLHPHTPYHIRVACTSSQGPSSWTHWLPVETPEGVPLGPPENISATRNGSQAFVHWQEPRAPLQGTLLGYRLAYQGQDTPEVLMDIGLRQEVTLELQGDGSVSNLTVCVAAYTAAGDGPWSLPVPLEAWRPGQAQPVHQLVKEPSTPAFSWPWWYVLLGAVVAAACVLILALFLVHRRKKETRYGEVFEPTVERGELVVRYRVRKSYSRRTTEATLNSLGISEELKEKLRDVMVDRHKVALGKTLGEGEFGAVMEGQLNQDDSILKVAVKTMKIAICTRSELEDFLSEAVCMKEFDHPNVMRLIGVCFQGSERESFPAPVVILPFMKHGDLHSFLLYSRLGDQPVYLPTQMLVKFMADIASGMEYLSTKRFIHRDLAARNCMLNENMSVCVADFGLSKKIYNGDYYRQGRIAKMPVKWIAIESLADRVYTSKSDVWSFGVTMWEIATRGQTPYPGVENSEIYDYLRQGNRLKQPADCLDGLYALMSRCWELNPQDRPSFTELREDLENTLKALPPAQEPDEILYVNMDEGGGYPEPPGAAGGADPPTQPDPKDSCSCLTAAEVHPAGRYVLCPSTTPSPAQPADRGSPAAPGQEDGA

[4] = target: Homeodomain-interacting protein kinase 2 (Homo sapiens) (UniProt Q9H2X6); experiment: Inhibition of HIPK2 (unknown origin) assessed as effect on HIPK2 protein level by Western blotting analysis
Homeodomain-interacting protein kinase 2 (Homo sapiens), sequence (Q9H2X6 whole entry, looked up): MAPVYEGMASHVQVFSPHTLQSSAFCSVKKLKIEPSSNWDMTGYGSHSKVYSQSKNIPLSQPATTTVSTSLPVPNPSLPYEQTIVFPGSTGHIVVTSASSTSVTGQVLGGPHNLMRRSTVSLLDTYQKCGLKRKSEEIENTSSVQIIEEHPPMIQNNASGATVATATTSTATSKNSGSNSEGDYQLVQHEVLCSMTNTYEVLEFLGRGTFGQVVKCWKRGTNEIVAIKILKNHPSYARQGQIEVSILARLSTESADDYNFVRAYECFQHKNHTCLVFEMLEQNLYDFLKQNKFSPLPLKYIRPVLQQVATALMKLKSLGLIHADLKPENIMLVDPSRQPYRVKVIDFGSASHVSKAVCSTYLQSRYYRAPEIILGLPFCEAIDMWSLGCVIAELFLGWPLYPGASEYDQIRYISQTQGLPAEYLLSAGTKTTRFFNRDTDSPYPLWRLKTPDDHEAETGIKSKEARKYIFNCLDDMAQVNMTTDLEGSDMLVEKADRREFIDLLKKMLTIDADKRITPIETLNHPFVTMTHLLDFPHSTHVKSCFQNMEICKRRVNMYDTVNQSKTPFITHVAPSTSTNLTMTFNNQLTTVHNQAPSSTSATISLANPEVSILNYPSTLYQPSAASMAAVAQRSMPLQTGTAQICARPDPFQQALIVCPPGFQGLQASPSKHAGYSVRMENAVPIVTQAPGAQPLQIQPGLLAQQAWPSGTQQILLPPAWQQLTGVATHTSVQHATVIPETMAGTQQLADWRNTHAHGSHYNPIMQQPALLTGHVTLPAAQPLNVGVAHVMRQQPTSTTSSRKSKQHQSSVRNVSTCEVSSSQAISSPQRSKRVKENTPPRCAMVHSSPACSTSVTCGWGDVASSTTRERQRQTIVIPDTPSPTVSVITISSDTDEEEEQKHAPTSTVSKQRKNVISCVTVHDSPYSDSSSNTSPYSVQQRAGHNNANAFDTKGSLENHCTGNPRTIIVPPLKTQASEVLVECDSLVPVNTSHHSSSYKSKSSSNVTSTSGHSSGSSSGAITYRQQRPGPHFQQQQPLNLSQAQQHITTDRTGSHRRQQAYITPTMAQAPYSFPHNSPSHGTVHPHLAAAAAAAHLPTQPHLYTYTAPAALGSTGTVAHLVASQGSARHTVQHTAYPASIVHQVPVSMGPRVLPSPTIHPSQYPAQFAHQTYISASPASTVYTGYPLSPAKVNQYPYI

[5] = target: Macrophage colony-stimulating factor 1 receptor (Homo sapiens) (UniProt P07333); experiment: Inhibition of FMS (unknown origin) at 0.5 uM relative to control
Macrophage colony-stimulating factor 1 receptor (Homo sapiens), sequence (P07333 whole entry): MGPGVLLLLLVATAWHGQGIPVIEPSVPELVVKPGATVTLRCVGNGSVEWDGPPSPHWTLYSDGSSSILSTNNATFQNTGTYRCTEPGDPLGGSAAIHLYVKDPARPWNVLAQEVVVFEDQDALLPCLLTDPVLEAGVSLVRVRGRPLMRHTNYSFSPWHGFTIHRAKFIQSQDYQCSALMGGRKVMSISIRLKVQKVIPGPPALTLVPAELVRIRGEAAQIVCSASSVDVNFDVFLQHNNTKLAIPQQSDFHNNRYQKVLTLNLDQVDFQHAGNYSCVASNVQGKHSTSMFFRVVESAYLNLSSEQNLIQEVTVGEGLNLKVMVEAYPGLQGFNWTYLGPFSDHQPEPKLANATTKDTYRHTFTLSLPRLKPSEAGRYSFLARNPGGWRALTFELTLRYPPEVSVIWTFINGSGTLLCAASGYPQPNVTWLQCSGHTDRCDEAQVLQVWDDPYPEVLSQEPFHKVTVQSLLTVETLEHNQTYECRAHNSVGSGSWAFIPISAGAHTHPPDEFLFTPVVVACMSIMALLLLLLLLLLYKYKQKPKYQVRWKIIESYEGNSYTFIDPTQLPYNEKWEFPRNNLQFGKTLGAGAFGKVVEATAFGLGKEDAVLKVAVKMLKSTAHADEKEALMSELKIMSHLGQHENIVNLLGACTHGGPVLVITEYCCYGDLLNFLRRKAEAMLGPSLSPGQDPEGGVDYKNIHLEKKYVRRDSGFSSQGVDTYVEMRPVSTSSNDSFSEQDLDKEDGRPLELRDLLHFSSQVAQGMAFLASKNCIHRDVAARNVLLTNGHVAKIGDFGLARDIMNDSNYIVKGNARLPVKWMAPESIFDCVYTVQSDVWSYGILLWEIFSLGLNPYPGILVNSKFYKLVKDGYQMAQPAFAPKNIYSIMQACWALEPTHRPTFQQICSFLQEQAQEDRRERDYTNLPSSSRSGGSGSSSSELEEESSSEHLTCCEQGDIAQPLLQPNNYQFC

[6] = target: Ephrin type-A receptor 7 (Homo sapiens) (UniProt Q15375); experiment: Inhibition of EPHA7 (unknown origin) at 0.5 uM relative to control
Ephrin type-A receptor 7 (Homo sapiens), sequence (Q15375 28-998 limits assumed): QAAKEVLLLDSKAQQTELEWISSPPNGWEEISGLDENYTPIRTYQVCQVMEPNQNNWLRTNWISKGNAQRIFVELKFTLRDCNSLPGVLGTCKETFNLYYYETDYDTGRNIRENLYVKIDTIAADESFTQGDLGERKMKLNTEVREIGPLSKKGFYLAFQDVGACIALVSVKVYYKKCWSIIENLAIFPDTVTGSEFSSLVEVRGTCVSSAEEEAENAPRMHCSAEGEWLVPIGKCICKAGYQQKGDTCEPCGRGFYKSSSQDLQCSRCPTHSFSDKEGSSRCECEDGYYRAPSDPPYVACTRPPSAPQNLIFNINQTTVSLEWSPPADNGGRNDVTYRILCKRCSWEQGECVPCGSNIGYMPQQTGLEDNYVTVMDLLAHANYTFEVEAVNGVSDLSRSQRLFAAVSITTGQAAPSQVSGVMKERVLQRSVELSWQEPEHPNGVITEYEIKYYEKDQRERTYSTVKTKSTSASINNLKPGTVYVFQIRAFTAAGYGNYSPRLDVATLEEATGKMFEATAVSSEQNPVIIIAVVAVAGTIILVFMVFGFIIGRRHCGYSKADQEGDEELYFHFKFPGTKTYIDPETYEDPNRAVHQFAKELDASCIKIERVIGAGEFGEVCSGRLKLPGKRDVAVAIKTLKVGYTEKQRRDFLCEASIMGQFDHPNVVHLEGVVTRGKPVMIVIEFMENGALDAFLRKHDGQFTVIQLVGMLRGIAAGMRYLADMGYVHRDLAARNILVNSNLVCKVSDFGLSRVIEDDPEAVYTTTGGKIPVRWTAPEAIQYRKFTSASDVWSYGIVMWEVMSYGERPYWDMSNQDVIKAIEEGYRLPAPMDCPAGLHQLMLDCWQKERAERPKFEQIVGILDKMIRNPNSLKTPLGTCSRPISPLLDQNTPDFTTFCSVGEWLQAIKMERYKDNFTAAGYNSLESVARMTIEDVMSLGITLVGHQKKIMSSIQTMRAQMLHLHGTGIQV

[7] = target: RAF proto-oncogene serine/threonine-protein kinase (Homo sapiens) (UniProt P04049); experiment: Inhibition of CRAF (unknown origin) at 0.5 uM relative to control
RAF proto-oncogene serine/threonine-protein kinase (Homo sapiens), sequence (P04049 whole entry): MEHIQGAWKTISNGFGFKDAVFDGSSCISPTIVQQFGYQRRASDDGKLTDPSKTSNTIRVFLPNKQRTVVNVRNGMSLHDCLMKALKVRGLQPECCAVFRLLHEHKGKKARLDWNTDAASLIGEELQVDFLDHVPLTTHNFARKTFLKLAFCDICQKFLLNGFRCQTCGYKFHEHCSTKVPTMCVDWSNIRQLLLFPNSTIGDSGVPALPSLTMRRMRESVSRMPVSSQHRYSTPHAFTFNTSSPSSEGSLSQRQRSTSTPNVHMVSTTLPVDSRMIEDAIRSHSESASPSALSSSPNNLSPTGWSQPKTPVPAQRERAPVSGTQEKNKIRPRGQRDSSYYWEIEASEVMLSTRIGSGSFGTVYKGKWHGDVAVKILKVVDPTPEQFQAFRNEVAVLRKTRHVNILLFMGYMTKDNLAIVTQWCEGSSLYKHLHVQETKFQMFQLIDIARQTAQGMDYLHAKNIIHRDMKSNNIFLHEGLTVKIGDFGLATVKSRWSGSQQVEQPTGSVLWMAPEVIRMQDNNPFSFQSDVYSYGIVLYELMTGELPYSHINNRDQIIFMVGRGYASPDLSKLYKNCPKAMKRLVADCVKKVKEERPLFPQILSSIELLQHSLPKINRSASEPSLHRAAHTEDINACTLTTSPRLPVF

[8] = target: T2, Serine/threonine-protein kinase TAO3 (Homo sapiens) (UniProt Q9H2K8); experiment: Inhibition of TAOK3 (unknown origin) at 0.5 uM relative to control
T2 sequence (whole entry): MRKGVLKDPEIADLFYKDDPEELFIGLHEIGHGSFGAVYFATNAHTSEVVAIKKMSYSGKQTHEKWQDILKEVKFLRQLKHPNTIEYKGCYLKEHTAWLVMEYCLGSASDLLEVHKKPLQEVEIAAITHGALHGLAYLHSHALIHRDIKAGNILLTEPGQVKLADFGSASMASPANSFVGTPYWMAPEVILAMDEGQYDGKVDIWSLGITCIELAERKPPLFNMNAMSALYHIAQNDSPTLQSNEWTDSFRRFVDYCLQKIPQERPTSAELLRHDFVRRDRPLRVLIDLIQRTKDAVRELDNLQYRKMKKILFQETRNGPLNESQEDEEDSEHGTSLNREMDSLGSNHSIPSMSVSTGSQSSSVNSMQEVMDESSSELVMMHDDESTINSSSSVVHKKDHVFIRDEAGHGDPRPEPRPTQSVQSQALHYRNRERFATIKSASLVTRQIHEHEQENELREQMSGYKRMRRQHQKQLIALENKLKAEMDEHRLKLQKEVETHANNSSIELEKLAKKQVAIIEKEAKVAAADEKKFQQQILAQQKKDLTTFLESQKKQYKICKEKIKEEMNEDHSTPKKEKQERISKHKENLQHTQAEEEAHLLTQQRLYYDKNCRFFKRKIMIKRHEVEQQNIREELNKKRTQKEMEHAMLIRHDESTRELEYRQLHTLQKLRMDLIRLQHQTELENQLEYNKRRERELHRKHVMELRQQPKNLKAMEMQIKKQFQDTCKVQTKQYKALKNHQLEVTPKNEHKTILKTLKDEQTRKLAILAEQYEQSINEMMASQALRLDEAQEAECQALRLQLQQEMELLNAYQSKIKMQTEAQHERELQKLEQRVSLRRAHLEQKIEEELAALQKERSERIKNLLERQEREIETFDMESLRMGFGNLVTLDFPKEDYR

[9] = target: T3, Ephrin type-A receptor 8 (Homo sapiens) (UniProt P29322); experiment: Inhibition of EPHA8 (unknown origin) at 0.5 uM relative to control
T3 sequence (whole entry): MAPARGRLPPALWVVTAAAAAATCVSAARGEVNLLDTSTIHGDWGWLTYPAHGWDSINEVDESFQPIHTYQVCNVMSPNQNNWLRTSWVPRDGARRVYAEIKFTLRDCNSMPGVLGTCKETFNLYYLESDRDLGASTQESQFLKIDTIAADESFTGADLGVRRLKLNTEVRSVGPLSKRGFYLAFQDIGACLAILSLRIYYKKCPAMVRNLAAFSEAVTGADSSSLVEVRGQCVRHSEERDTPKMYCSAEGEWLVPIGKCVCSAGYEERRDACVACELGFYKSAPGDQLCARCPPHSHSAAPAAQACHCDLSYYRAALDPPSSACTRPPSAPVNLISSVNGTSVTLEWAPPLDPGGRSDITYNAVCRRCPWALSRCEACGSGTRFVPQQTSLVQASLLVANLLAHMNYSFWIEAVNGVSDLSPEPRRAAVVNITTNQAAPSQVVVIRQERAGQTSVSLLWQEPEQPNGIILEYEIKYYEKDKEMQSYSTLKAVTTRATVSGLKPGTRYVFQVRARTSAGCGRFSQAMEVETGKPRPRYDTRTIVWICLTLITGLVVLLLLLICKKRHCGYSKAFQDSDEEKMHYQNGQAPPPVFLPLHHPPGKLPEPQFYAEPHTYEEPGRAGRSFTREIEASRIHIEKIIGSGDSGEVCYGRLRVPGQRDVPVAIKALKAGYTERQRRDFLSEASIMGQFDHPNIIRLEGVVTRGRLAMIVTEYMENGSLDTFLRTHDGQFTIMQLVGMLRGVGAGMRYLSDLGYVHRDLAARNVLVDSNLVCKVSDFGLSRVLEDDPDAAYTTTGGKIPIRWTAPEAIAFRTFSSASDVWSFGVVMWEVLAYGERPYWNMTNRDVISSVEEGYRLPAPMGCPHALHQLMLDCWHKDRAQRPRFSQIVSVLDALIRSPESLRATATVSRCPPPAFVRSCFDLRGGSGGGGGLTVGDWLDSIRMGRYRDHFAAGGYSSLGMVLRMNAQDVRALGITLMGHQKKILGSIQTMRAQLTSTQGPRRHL

inhibition [1] | inhibition [2] | inhibition [3] | Activity [4] | inhibition [5] | inhibition [6] | inhibition [7] | inhibition [8] | inhibition [9] | Structure (SMILES) | inhibition (GILM3)
97% | 93% | 91% | inactive | – | – | – | – | – | CNC(=O)c1cc(Oc2ccc(NC(=O)c3nc(SC)[nH]c3-c3ccc(F)cc3)cc2)ccn1 | Active
95% | 58% | 52% | – | 43% | – | – | – | – | CNC(=O)c1cc(Oc2ccc(NC(=O)c3nc(C(F)(F)F)sc3-c3ccc(F)cc3)cc2)ccn1 | –
96% | 50% | – | – | – | 60% | 63% | 55% | – | CNC(=O)c1cc(Oc2ccc(NC(=O)c3nc(NC)sc3-c3ccc(F)cc3)cc2)ccn1 | –
87% | 36% | – | – | – | 22% | – | – | – | CSc1nc(C(=O)Nc2ccc(Oc3cc4cnn(C)c4cc3Br)cc2)c(-c2ccc(F)cc2)o1 | –
99% | 66% | – | inactive | – | 41% | – | 39% | 54% | CNC(=O)c1cc(Oc2ccc(NC(=O)c3nc(SC)oc3-c3ccc(F)cc3)cc2)ccn1 | Active
96% | – | 83% | inactive | 39% | – | 11% | – | 54% | CNC(=O)c1cc(Oc2ccc(NC(=O)c3nc(S(C)(=O)=O)sc3-c3ccc(F)cc3)cc2)ccn1 | Active
98% | 55% | – | – | – | 53% | – | 40% | – | CNC(=O)c1cc(Oc2ccc(NC(=O)c3nc(SC)oc3-c3ccc(F)cc3)cc2F)ccn1 | –
84% | 26% | – | – | 47% | – | 57% | – | 51% | CNC(=O)c1cc(Oc2ccc(NC(=O)c3n[nH]nc3-c3ccc(F)cc3)cc2)ccn1 | –
91% | 47% | 64% | – | 65% | – | – | – | – | CNC(=O)c1cc(Oc2ccc(NC(=O)c3nc(SC)n(CCN(C)C)c3-c3ccc(F)cc3)cc2)ccn1 | –
